From US11981677B2, “Further substituted triazolo quinoxaline derivatives” (Grünenthal GmbH, priority 2018, dated 2024)

target: T1, Glucocorticoid Receptor (Homo sapiens, UniProt P04150); experiment: Agonistic mode of action on the glucocorticoid receptor (CHO-Gal4/GR luciferase reporter cell line); assay type: cell-based; settings: CHO-Gal4/GR luciferase reporter cells; observed in the agonistic assay or the antagonistic assay (mode not given); read-out: IC50 or EC50 range
T1 construct: expressed in transfected cells
T1 sequence (P04150 524-758 limits assumed): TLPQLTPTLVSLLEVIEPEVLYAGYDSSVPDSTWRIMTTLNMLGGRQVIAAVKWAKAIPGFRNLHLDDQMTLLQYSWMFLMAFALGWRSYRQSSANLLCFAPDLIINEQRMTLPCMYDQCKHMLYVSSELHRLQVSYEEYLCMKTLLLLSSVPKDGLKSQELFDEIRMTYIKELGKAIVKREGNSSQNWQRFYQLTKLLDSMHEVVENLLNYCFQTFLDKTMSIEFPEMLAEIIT
Summary of the method: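 CHO cells stably expressing GAL4 DBD–GR ligand-binding domain fusion with GAL4-UAS firefly luciferase reporter, seeded 24 h, then treated in Opti-MEM with 8 half-log concentrations from 10 μM to 0.003 μM (0.5% DMSO), quadruplicate. Luminescence read on FLIPR after lysis with Triton/luciferin; EC50 calculated.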

SMILES	IC50 or EC50 (antagonist or agonist mode, not stated per compound) [nM]
Cc1c(-c2cc(F)cc3c2cnn3S(C)(=O)=O)c(F)c(Cl)c2c1-n1c(C)nnc1C(C)(C)N2 [Example 510, 6-Chloro-7-fluoro-8-(6-fluoro-1-methylsulfonyl-1H-indazol-4-yl)-1,4,4,9-tetramethyl-5H-[1,2,4]triazolo[4,3-a]quinoxaline]	< 100
COc1c(-c2cccc3c2ccn3C2CC2)cc(F)c2c1-n1c(C)nnc1C(C)(C)N2 [Example 511, 8-(1-Cyclopropyl-1H-indol-4-yl)-6-fluoro-9-methoxy-1,4,4-trimethyl-5H-[1,2,4]triazolo[4,3-a]quinoxaline]	100 to 1000
Cc1c(-c2cccc3c(C)c[nH]c23)c(F)c(F)c2c1-n1c(C)nnc1C(C)(C)N2 [Example 513, 6,7-Difluoro-1,4,4,9-tetramethyl-8-(3-methyl-1H-indol-7-yl)-5H-[1,2,4]triazolo[4,3-a]quinoxaline]	100 to 1000
Cc1c(-c2cc(F)cc3c(C)c[nH]c23)c(F)c(F)c2c1-n1c(C)nnc1C(C)(C)N2 [Example 514, 6,7-Difluoro-8-(5-fluoro-3-methyl-1H-indol-7-yl)-1,4,4,9-tetramethyl-5H-[1,2,4]triazolo[4,3-a]quinoxaline]	< 100
COc1c(-c2cc(F)cc3cc[nH]c23)cc(F)c2c1-n1c(C)nnc1C(C)(C)N2 [Example 515, 6-Fluoro-8-(5-fluoro-1H-indol-7-yl)-9-methoxy-1,4,4-trimethyl-5H-[1,2,4]triazolo[4,3-a]quinoxaline]	100 to 1000
Cc1nnc2n1-c1c(c(F)c(F)c(-c3cc(F)cc4c3ccn4S(C)(=O)=O)c1C(F)(F)F)NC2(C)C [Example 518, 6,7-difluoro-8-(6-fluoro-1-(methylsulfonyl)-1H-indol-4-yl)-1,4,4-trimethyl-9-(trifluoromethyl)-4,5-dihydro-[1,2,4]triazolo[4,3-a]quinoxaline]	100 to 1000
Cc1nnc2n1-c1c(c(F)c(F)c(-c3cc(F)cc4c3cnn4S(C)(=O)=O)c1C(F)(F)F)NC2(C)C [Example 519, 6,7-Difluoro-8-(6-fluoro-1-methylsulfonyl-1H-indazol-4-yl)-1,4,4-trimethyl-9-(trifluoromethyl)-5H-[1,2,4]triazolo[4,3-a]quinoxaline]	100 to 1000
COc1cc(-c2cc(F)c3c(c2C)-n2c(C)nnc2C(C)(C)N3)c2ccn(S(C)(=O)=O)c2c1 [Example 523, 6-Fluoro-8-(6-methoxy-1-methylsulfonyl-1H-indol-4-yl)-1,4,4,9-tetramethyl-5H-[1,2,4]triazolo[4,3-a]quinoxaline]	100 to 1000
COc1cc(-c2cc(F)c3c(c2OC)-n2c(C)nnc2C(C)(C)N3)c2ccn(S(C)(=O)=O)c2c1 [Example 524, 6-Fluoro-9-methoxy-8-(6-methoxy-1-methylsulfonyl-1H-indol-4-yl)-1,4,4-trimethyl-5H-[1,2,4]triazolo[4,3-a]quinoxaline]	100 to 1000
Cc1c(-c2cc(F)cc3c2cnn3S(C)(=O)=O)c(Cl)c(F)c2c1-n1c(C)nnc1C(C)(C)N2 [Example 525, 7-Chloro-6-fluoro-8-(6-fluoro-1-methylsulfonyl-1H-indazol-4-yl)-1,4,4,9-tetramethyl-5H-[1,2,4]triazolo[4,3-a]quinoxaline]	< 100
Cc1c(-c2cc(F)cc3c(C)c[nH]c23)c(Cl)c(F)c2c1-n1c(C)nnc1C(C)(C)N2 [Example 526, 7-Chloro-6-fluoro-8-(5-fluoro-3-methyl-1H-indol-7-yl)-1,4,4,9-tetramethyl-5H-[1,2,4]triazolo[4,3-a]quinoxaline]	< 100

Next, values leading:

IC50 or EC50 (antagonist or agonist mode, not stated per compound) [nM]	SMILES
< 100	Cc1c(-c2cccc3[nH]ccc23)c(F)c(F)c2c1-n1c(C)nnc1C(C)(C)N2 [Example 512, 6,7-Difluoro-8-(1H-indol-4-yl)-1,4,4,9-tetramethyl-5H-[1,2,4]triazolo[4,3-a]quinoxaline]
< 100	Cc1nnc2n1-c1c(c(F)c(F)c(-c3cc(F)cc4[nH]ccc34)c1C(F)(F)F)NC2(C)C [Example 516, 6,7-Difluoro-8-(6-fluoro-1H-indol-4-yl)-1,4,4-trimethyl-9-(trifluoromethyl)-5H-[1,2,4]triazolo[4,3-a]quinoxaline]
100 to 1000	Cc1c(-c2ccc(F)c3[nH]ncc23)cc(F)c2c1-n1c(C)nnc1C(C)(C)N2 [Example 517, 6-Fluoro-8-(7-fluoro-1H-indazol-4-yl)-1,4,4,9-tetramethyl-5H-[1,2,4]triazolo[4,3-a]quinoxaline]
100 to 1000	Cc1c(-c2ccc(C#N)c3[nH]ccc23)c(F)c(F)c2c1-n1c(C)nnc1C(C)(C)N2 [Example 520, 4-(6,7-difluoro-1,4,4,9-tetramethyl-4,5-dihydro-[1,2,4]triazolo[4,3-a]quinoxalin-8-yl)-1H-indole-7-carbonitrile]
< 100	Cc1c(-c2cc(F)cc3c2ccn3C)c(F)c(F)c2c1-n1c(C)nnc1C(C)(C)N2 [Example 521, 6,7-Difluoro-8-(6-fluoro-1-methyl-1H-indol-4-yl)-1,4,4,9-tetramethyl-5H-[1,2,4]triazolo[4,3-a]quinoxaline]
100 to 1000	COc1cc(-c2c(C)c3c(c(F)c2F)NC(C)(C)c2nnc(C)n2-3)c2ccn(S(C)(=O)=O)c2c1 [Example 522, 6,7-Difluoro-8-(6-methoxy-1-methylsulfonyl-1H-indol-4-yl)-1,4,4,9-tetramethyl-5H-[1,2,4]triazolo[4,3-a]quinoxaline]
100 to 1000	Cc1c(-c2cccc3c2cnn3S(C)(=O)=O)c(Cl)c(F)c2c1-n1c(C)nnc1C(C)(C)N2 [Example 527, 7-Chloro-6-fluoro-1,4,4,9-tetramethyl-8-(1-methylsulfonyl-1H-indazol-4-yl)-5H-[1,2,4]triazolo[4,3-a]quinoxaline]
